A short description of the data set: Particle size measurement by Malvern Particle Size Analyzer (Mastersizer-Hydro 2000 S M). The data set is classed as physicochemical. The conditions noted are these: 1 g in 100 ml dispersant medium; prothioconazole prepared according to Example 3. On the procedure:
Particle Size Measurement by Malvern Particle Size Analyzer
Sample preparation and method of analysis: 1 g of Prothioconazole was taken in 100 ml dispersant medium. The content was mixed well and analyzed in Malvern Mastersizer-Hydro 2000 S M.

For the molecule `OC(Cc1ccccc1Cl)(Cn1ncnc1S)C1(Cl)CC1` (centres unmarked) [Prothioconazole, 2-(1-chloro-cyclopropyl)-1-(2-chlorophenyl)-3-(5-mercapto-1,2,4-triazol-1-yl)-propan-2-ol], the “d (0.5) particle size (volume distribution)” value is listed as 202.967 um and the “d (0.9) particle size (volume distribution)” value came out at 367.723 um.

Source of the values: US11634394B2, “Process for preparation of fungicidally active triazole compounds” (UPL LTD, priority 2018, dated 2023).
